Reference: the NIST ThermoML archive (doi:10.1021/acs.jced.6b00269)
± gives the expanded uncertainty stated by the source.

Conditions: for Normal melting temperature: Crystal, DTA; for viscosity / mass density: 101.33 kPa, Liquid; for viscosity: Cone and plate viscometry; for mass density: Vibrating tube method; for Glass transition temperature: DSC

CCC=C[P+](CC)(CC)CC.O=S(=O)([N-]S(=O)(=O)C(F)(F)F)C(F)(F)F
Conditions | Normal melting temperature [°C]
– | 49 ± 2

CCCCCCCCCCCCCC[P+](CCCCCC)(CCCCCC)CCCCCC.O=[N+]([O-])c1cn[n-]c1 [trihexyl(tetradecyl)phosphonium 4-nitropyrazolide]
Conditions | Glass transition temperature [°C] | mass density [kg/m3] | viscosity [mPa·s]
– | -75 ± 2 | – | –
278.15 K | – | – | 3560 ± 370
283.15 K | – | 948.8 ± 4.9 | 2290 ± 220
288.15 K | – | 945.6 ± 4.9 | 1500 ± 140
293.15 K | – | 942.3 ± 4.8 | 1020 ± 89
295.15 K | – | 941.1 ± 4.8 | –
298.15 K | – | 939.3 ± 4.8 | 710 ± 59
303.15 K | – | 936.4 ± 4.8 | 510 ± 40
308.15 K | – | 933.4 ± 4.8 | 375 ± 28
313.15 K | – | 930.4 ± 4.7 | 280 ± 21
318.15 K | – | 927.4 ± 4.7 | 214 ± 15
323.15 K | – | 924.5 ± 4.7 | 167 ± 12
328.15 K | – | 921.6 ± 4.7 | 133 ± 9
333.15 K | – | 918.7 ± 4.6 | 108 ± 7
338.15 K | – | 915.8 ± 4.6 | 88 ± 6
343.15 K | – | 912.8 ± 4.6 | 74 ± 5
348.15 K | – | 909.9 ± 4.6 | –
353.15 K | – | 907 ± 4.6 | –

CCCCCCSC(N(C)C)=[N+](C)C.O=S(=O)([N-]S(=O)(=O)C(F)(F)F)C(F)(F)F
Conditions | Glass transition temperature [°C] | mass density [kg/m3] | viscosity [mPa·s]
– | -82 ± 2 | – | –
278.15 K | – | – | 268 ± 20
283.15 K | – | 1352.2 ± 10 | 193 ± 14
288.15 K | – | 1347.8 ± 9.9 | 143 ± 10
293.15 K | – | 1343.4 ± 9.8 | 109 ± 7
295.15 K | – | 1341.6 ± 9.8 | –
298.15 K | – | 1339 ± 9.8 | 85 ± 6
303.15 K | – | 1334.6 ± 9.7 | 68 ± 5
308.15 K | – | 1330.2 ± 9.7 | 55 ± 4
313.15 K | – | 1325.8 ± 9.6 | –
318.15 K | – | 1321.5 ± 9.5 | –
323.15 K | – | 1317.1 ± 9.5 | –
328.15 K | – | 1312.8 ± 9.4 | –
333.15 K | – | 1308.5 ± 9.3 | –
338.15 K | – | 1304.2 ± 9.3 | –
343.15 K | – | 1299.8 ± 9.2 | –
348.15 K | – | 1295.6 ± 9.2 | –
353.15 K | – | 1291.3 ± 9.1 | –

CCCCCCn1cc[n+](C)c1.O=[N+]([O-])c1cn[n-]c1 [1-hexyl-3-methylimidazolium 4-nitropyrazolide]
Conditions | Glass transition temperature [°C] | Normal melting temperature [°C] | mass density [kg/m3] | viscosity [mPa·s]
– | -56 ± 2 | 33 ± 2 | – | –
278.15 K | – | – | – | 3310 ± 340
283.15 K | – | – | 1133.6 ± 7 | 1810 ± 170
288.15 K | – | – | 1130 ± 6.9 | 1040 ± 92
293.15 K | – | – | 1126.6 ± 6.9 | 633 ± 52
295.15 K | – | – | 1125.3 ± 6.9 | –
298.15 K | – | – | 1123.3 ± 6.8 | 407 ± 32
303.15 K | – | – | 1120 ± 6.8 | 275 ± 20
308.15 K | – | – | 1116.6 ± 6.8 | 192 ± 14
313.15 K | – | – | 1113.4 ± 6.7 | 139 ± 10
318.15 K | – | – | 1110.2 ± 6.7 | 102 ± 7
323.15 K | – | – | 1107 ± 6.6 | 79 ± 5
328.15 K | – | – | 1103.8 ± 6.6 | 63 ± 4
333.15 K | – | – | 1100.6 ± 6.6 | 51 ± 3
338.15 K | – | – | 1097.4 ± 6.5 | –
343.15 K | – | – | 1094.2 ± 6.5 | –
348.15 K | – | – | 1091.1 ± 6.5 | –
353.15 K | – | – | 1087.9 ± 6.4 | –

CCCCCCCCSC(N(C)C)=[N+](C)C.O=S(=O)([N-]S(=O)(=O)C(F)(F)F)C(F)(F)F
Conditions | Glass transition temperature [°C] | mass density [kg/m3] | viscosity [mPa·s]
– | -82 ± 2 | – | –
278.15 K | – | – | 356 ± 27
283.15 K | – | 1309.6 ± 9.4 | 254 ± 19
288.15 K | – | 1305.2 ± 9.3 | 186 ± 13
293.15 K | – | 1301 ± 9.2 | 140 ± 10
295.15 K | – | 1299.3 ± 9.2 | –
298.15 K | – | 1296.7 ± 9.2 | 108 ± 7
303.15 K | – | 1292.4 ± 9.1 | 85 ± 6
308.15 K | – | 1288.2 ± 9 | 69 ± 5
313.15 K | – | 1284 ± 9 | 56 ± 4
318.15 K | – | 1279.7 ± 8.9 | –
323.15 K | – | 1275.5 ± 8.9 | –
328.15 K | – | 1271.3 ± 8.8 | –
333.15 K | – | 1267.1 ± 8.8 | –
338.15 K | – | 1262.9 ± 8.7 | –
343.15 K | – | 1258.7 ± 8.6 | –
348.15 K | – | 1254.6 ± 8.6 | –
353.15 K | – | 1250.4 ± 8.5 | –

CCCCCCCC[P+](CC)(CC)CC.O=[N+]([O-])c1cn[n-]c1 [triethyloctylphosphonium 4-nitropyrazolide]
Conditions | Glass transition temperature [°C] | Normal melting temperature [°C] | mass density [kg/m3] | viscosity [mPa·s]
– | -72 ± 2 | 5 ± 2 | – | –
278.15 K | – | – | – | 1100 ± 100
283.15 K | – | – | 1040.1 ± 5.9 | 716 ± 60
288.15 K | – | – | 1037 ± 5.8 | 480 ± 38
293.15 K | – | – | 1033.9 ± 5.8 | 333 ± 25
295.15 K | – | – | 1032.7 ± 5.8 | –
298.15 K | – | – | 1030.9 ± 5.7 | 238 ± 17
303.15 K | – | – | 1027.9 ± 5.7 | 175 ± 12
308.15 K | – | – | 1024.9 ± 5.7 | 133 ± 9
313.15 K | – | – | 1022 ± 5.6 | 103 ± 7
318.15 K | – | – | 1019 ± 5.6 | 81 ± 5
323.15 K | – | – | 1016.1 ± 5.6 | 65 ± 4
328.15 K | – | – | 1013.2 ± 5.5 | 53 ± 4
333.15 K | – | – | 1010.2 ± 5.5 | –
338.15 K | – | – | 1007.3 ± 5.5 | –
343.15 K | – | – | 1004.4 ± 5.4 | –
348.15 K | – | – | 1001.5 ± 5.4 | –
353.15 K | – | – | 998.6 ± 5.4 | –

CCCC[P+](CC)(CC)CC.O=[N+]([O-])c1cn[n-]c1 [butyltriethylphosphonium 4-nitropyrazolide]
Conditions | Normal melting temperature [°C] | mass density [kg/m3] | viscosity [mPa·s]
– | 44 | – | –
278.15 K | – | – | 840 ± 71
283.15 K | – | 1087.9 ± 6.4 | 551 ± 44
288.15 K | – | 1084.7 ± 6.4 | 372 ± 28
293.15 K | – | 1081.5 ± 6.3 | 261 ± 19
295.15 K | – | 1080.3 ± 6.3 | –
298.15 K | – | 1078.4 ± 6.3 | 189 ± 13
303.15 K | – | 1075.4 ± 6.3 | 141 ± 10
308.15 K | – | 1072.4 ± 6.2 | 108 ± 7
313.15 K | – | 1069.3 ± 6.2 | 85 ± 6
318.15 K | – | 1066.3 ± 6.2 | 67 ± 4
323.15 K | – | 1063.3 ± 6.1 | 55 ± 4
328.15 K | – | 1060.3 ± 6.1 | –
333.15 K | – | 1057.3 ± 6.1 | –
338.15 K | – | 1054.3 ± 6 | –
343.15 K | – | 1051.3 ± 6 | –
348.15 K | – | 1048.4 ± 5.9 | –
353.15 K | – | 1045.4 ± 5.9 | –

CCCCCCCCC[P+](CC)(CC)CC.O=[N+]([O-])c1cn[n-]c1 [triethylnonylphosphonium 4-nitropyrazolide]
Conditions | Glass transition temperature [°C] | Normal melting temperature [°C] | mass density [kg/m3] | viscosity [mPa·s]
– | -72 ± 2 | 16 ± 2 | – | –
278.15 K | – | – | – | 1370 ± 120
283.15 K | – | – | 1031 ± 5.7 | 888 ± 76
288.15 K | – | – | 1027.9 ± 5.7 | 593 ± 48
293.15 K | – | – | 1024.9 ± 5.7 | 409 ± 32
295.15 K | – | – | 1023.6 ± 5.7 | –
298.15 K | – | – | 1021.8 ± 5.6 | 291 ± 22
303.15 K | – | – | 1018.8 ± 5.6 | 213 ± 15
308.15 K | – | – | 1015.8 ± 5.6 | 160 ± 11
313.15 K | – | – | 1012.9 ± 5.5 | 123 ± 8
318.15 K | – | – | 1009.9 ± 5.5 | 96 ± 6
323.15 K | – | – | 1007 ± 5.5 | 77 ± 5
328.15 K | – | – | 1004 ± 5.4 | 63 ± 4
333.15 K | – | – | 1001.1 ± 5.4 | 52 ± 3
338.15 K | – | – | 998.2 ± 5.4 | –
343.15 K | – | – | 995.3 ± 5.3 | –
348.15 K | – | – | 992.4 ± 5.3 | –
353.15 K | – | – | 989.5 ± 5.3 | –
